From US20240358692A1, “TREATMENT OF SCLERODERMA” (Aisa Pharma, Inc., priority 2023, published 2024)

What was measured:
[1] = test system: participants with SSc-RP; test: Average pain score recorded during weekly RP attacks (11-point Likert scale); assay type: in vivo, human; conditions: for Average Pain Score Change From Baseline [Mean (SD)]: Table G
Description: The absolute change in average pain score (11-point Likert scale) of weekly RP attacks from baseline to the end of each Dosing Period will be a secondary outcome variable. The sponsor-developed participant-informed diary will be used to record data. The average pain score of weekly RP attacks is defined as the total pain scores divided by total number of RP attacks within the last 7 days of each dosing period. Average of the last 7 days of screening assessments will be used as baseline for the analysis of all periods. The variable will be calculated similar to frequency data as before.

[2] = test system: participants with SSc-RP; test: SHAQ - Visual Analog Scale - Pain; assay type: in vivo, human; conditions: for % change in Pain: SHAQ, mITT Part A
Description: The standard, validated, patient reported outcome measures tool for SSc patients, the Scleroderma Health Assessment Questionnaire (SHAQ), will be used to assess the participant qualify of life. Details are attached in the Appendix. The participant quality of life will be scored, and a disability index calculated for each questionnaire completed by the patient at Screening and each in-clinic visit. The absolute change in participant quality of life from baseline to the end of each dosing period will be calculated similar to frequency data as before.
The standard, validated, patient reported outcome measures tool for SSc patients, the SHAQ, was collected at the time points specified in the study schedules (FIG. 2 and FIGS. 4A and 4B) to assess the participant's quality of life. The SHAQ included a Raynaud's VAS that will also be reported separately.
Pain on the SHAQ outcome measure on the first line in table F is a composite of all pain experienced in patients with SSc, comprising joint pain, back pain, headache, odynophagia, skin ulcer related discomfort, Raynaud's, and neuropathic pain. Aisa Pharma believes, based on the biologic attributes and actions of cilnidipine that differ from most dihydropyridine calcium channel antagonists that cilnidipine might have direct analgesic effects in certain pain conditions and in fact has been designated to receive evaluation through the […] Preclinical Pain Screening Platform Program to investigate the drug in multiple in vitro and in vivo preclinical models of pain that are validated and predictive of effects in man.

[3] = Any Cilnidipine (N = 17), Day 12, PP Population, Part A
[4] = Cilnidipine 10 mg, SSc patients, PP, Part A
[5] = Cilnidipine 20 mg, SSc patients, PP, Part A
[6] = Modified ITT Population-Part A, Day 12, dose cilnidipine 10 mg, tadalafil 5 mg, alone or combined as labelled
[7] = Modified ITT Population-Part A, Day 12, dose cilnidipine 20 mg, tadalafil 5 mg, alone or combined as labelled
[8] = Pooled Cilnidipine (N = 8), Day 12, PP Population, Part A
[9] = pooled Cilnidipine 10 mg and Cilnidipine 10 mg + Tadalafil 5 mg
[10] = pooled Cilnidipine 20 mg and Cilnidipine 20 mg + Tadalafil 5 mg
[11] = pooled cilnidipine 10 mg and 20 mg arms (combination: + tadalafil 5 mg)

Q: What does the source list for `COCCOC(=O)C1=C(C)NC(C)=C(C(=O)OC/C=C/c2ccccc2)C1c1cccc([N+](=O)[O-])c1` (stereo not shown) [Cilnidipine]?
A: Average Pain Score Change From Baseline [Mean (SD)] ([1]; Cilnidipine 10 mg (n = 4)): 0.47; Average Raynaud's Pain (change) ([1]; Cilnidipine 20 mg (n = 3)): 12%; Average Pain Score Change From Baseline [Mean (SD)] ([1]; Cilnidipine 20 mg (n = 3)): −0.47; Average Raynaud's Pain (change) ([1]; Pooled Cilnidipine (n = 7)): −27%; SHAQ Visual Analogue Scale - Pain, Change from Baseline, Mean (SD) [2, 3]: −0.575 (1.0318); SHAQ Visual Analogue Scale - Pain, Change from Baseline, Median [2, 3]: −0.600; SHAQ Visual Analogue Scale - Pain, In-Clinic Visit (Day 12), Mean (SD) [2, 3]: 2.476 (1.7312); SHAQ Visual Analogue Scale - Pain, In-Clinic Visit (Day 12), Median [2, 3]: 2.200; SHAQ Visual Analogue Scale - Pain, Percent Change from Baseline, Mean (SD) [2, 3]: −22.77 (31.937) %; SHAQ Visual Analogue Scale - Pain, Percent Change from Baseline, Median [2, 3]: −22.58%; SHAQ VAS Pain, Change from Baseline, Max [2, 4]: 0.30; SHAQ VAS Pain, Change from Baseline, Mean [2, 4]: −0.100; SHAQ VAS Pain, Change from Baseline, Median [2, 4]: 0.000; SHAQ VAS Pain, Change from Baseline, Min [2, 4]: −0.70,; SHAQ VAS Pain, Change from Baseline, Q1 [2, 4]: −0.350,; SHAQ VAS Pain, Change from Baseline, Q3 [2, 4]: 0.150; SHAQ VAS Pain, Day 12, Max [2, 4]: 3.60; SHAQ VAS Pain, Day 12, Mean [2, 4]: 1.875; SHAQ VAS Pain, Day 12, Median [2, 4]: 1.950; SHAQ VAS Pain, Day 12, Min [2, 4]: 0.00,; SHAQ VAS Pain, Day 12, Q1 [2, 4]: 0.500,; SHAQ VAS Pain, Day 12, Q3 [2, 4]: 3.250; SHAQ VAS Pain, Percent Change from Baseline, Max [2, 4]: 11.5; SHAQ VAS Pain, Percent Change from Baseline, Mean [2, 4]: −9.88; SHAQ VAS Pain, Percent Change from Baseline, Median [2, 4]: 0.00; SHAQ VAS Pain, Percent Change from Baseline, Min [2, 4]: −41.2,; SHAQ VAS Pain, Percent Change from Baseline, Q1 [2, 4]: −41.18,; SHAQ VAS Pain, Percent Change from Baseline, Q3 [2, 4]: 11.54; % change in Pain ([2]; Cilnidipine 20 mg (n = 3)): −53%; SHAQ VAS Pain, Change from Baseline, Max [2, 5]: 0.70; SHAQ VAS Pain, Change from Baseline, Mean [2, 5]: −0.650; SHAQ VAS Pain, Change from Baseline, Min [2, 5]: −2.00,; SHAQ VAS Pain, Change from Baseline, Q1 [2, 5]: −1.400,; SHAQ VAS Pain, Change from Baseline, Q3 [2, 5]: 0.100; SHAQ VAS Pain, Day 12, Max [2, 5]: 4.30; SHAQ VAS Pain, Day 12, Mean [2, 5]: 1.875; SHAQ VAS Pain, Day 12, Median [2, 5]: 1.400; SHAQ VAS Pain, Day 12, Min [2, 5]: 0.40,; SHAQ VAS Pain, Day 12, Q1 [2, 5]: 0.550,; SHAQ VAS Pain, Day 12, Q3 [2, 5]: 3.200; SHAQ VAS Pain, Percent Change from Baseline, Mean [2, 5]: −34.56; SHAQ VAS Pain, Percent Change from Baseline, Min [2, 5]: −55.6,; SHAQ VAS Pain, Percent Change from Baseline, Q1 [2, 5]: −54.44,; SHAQ VAS Pain, Percent Change from Baseline, Q3 [2, 5]: −14.67; Visual Analog Scale-Pain, Change from Baseline, Mean [2, 6]: −0.100; Visual Analog Scale-Pain, Change from Baseline, Median [2, 6]: 0.000; Visual Analog Scale-Pain, Percent Change from Baseline, Median [2, 6]: 0.00%; Visual Analog Scale-Pain, Change from Baseline, Mean [2, 7]: −1.100; Visual Analog Scale-Pain, Change from Baseline, Median [2, 7]: −0.800; Visual Analog Scale-Pain, In Clinic Visit (Day 12), Median ([2]; Modified ITT Population-Part A, dose cilnidipine 20 mg, tadalafil 5 mg, alone or combined as labelled): 0.700; SHAQ Visual Analogue Scale - Pain, In-Clinic Visit (Day 12), Median ([2]; Pooled Cilnidipine 10 mg and Cilnidipine 10 mg + Tadalafil 5 mg (N = 9), Day 12, PP Population, Part A): 2.900; SHAQ Visual Analogue Scale - Pain, In-Clinic Visit (Day 12), Median ([2]; Pooled Cilnidipine 20 mg and Cilnidipine 20 mg + Tadalafil 5 mg (N = 8), Day 12, PP Population, Part A): 2.100; SHAQ Visual Analogue Scale - Pain, Change from Baseline, Mean (SD) [2, 8]: −0.375 (0.8311); SHAQ Visual Analogue Scale - Pain, In-Clinic Visit (Day 12), Mean (SD) [2, 8]: 1.875 (1.5944); SHAQ Visual Analogue Scale - Pain, Percent Change from Baseline, Mean (SD) [2, 8]: −23.98 (32.893) %; % change in Pain ([2]; Pooled Cilnidipine (n = 7)): −31%; % Δ from baseline, VAS Pain median ([2]; Pooled cilnidipine (n=6)): −45%; SHAQ VAS-Pain (change) ([2]; cilnidipine 20 mg): −1.1; VAS Pain Change from Baseline Max [2, 9]: 0.60; VAS Pain Change from Baseline Mean [2, 9]: −0.633; VAS Pain Change from Baseline Median [2, 9]: −0.700; VAS Pain Change from Baseline Min [2, 9]: −2.80,; VAS Pain Change from Baseline Q1 [2, 9]: −1.100,; VAS Pain Change from Baseline Q3 [2, 9]: 0.000; VAS Pain Day 12 Max [2, 9]: 5.50; VAS Pain Day 12 Median [2, 9]: 2.900; VAS Pain Day 12 Min [2, 9]: 0.00,; VAS Pain Day 12 Q1 [2, 9]: 1.000,; VAS Pain Day 12 Q3 [2, 9]: 3.800; VAS Pain Percent Change from Baseline Max [2, 9]: 18.8%; VAS Pain Percent Change from Baseline Mean [2, 9]: −20.07%; VAS Pain Percent Change from Baseline Median [2, 9]: −21.87%; VAS Pain Percent Change from Baseline Min [2, 9]: −72.2, %; VAS Pain Percent Change from Baseline Q1 [2, 9]: −37.46, %; VAS Pain Percent Change from Baseline Q3 [2, 9]: 5.77%; VAS Pain Change from Baseline Max [2, 10]: 0.90; VAS Pain Change from Baseline Mean [2, 10]: −0.700; VAS Pain Change from Baseline Median [2, 10]: −0.650; VAS Pain Change from Baseline Min [2, 10]: −2.00,; VAS Pain Change from Baseline Q1 [2, 10]: −1.700,; VAS Pain Change from Baseline Q3 [2, 10]: −0.100; VAS Pain Day 12 Max [2, 10]: 5.30; VAS Pain Day 12 Mean [2, 10]: 2.000; VAS Pain Day 12 Median [2, 10]: 2.100; VAS Pain Day 12 Min [2, 10]: 0.40,; VAS Pain Day 12 Q1 [2, 10]: 0.700,; VAS Pain Day 12 Q3 [2, 10]: 2.200; VAS Pain Percent Change from Baseline Max [2, 10]: 20.5%; VAS Pain Percent Change from Baseline Median [2, 10]: −51.06%; VAS Pain Percent Change from Baseline Min [2, 10]: −58.6, %; VAS Pain Percent Change from Baseline Q1 [2, 10]: −55.56, %; VAS Pain Percent Change from Baseline Q3 [2, 10]: −4.55%; VAS Pain Change from Baseline Max [2, 11]: 0.30; VAS Pain Change from Baseline Median [2, 11]: −0.500; VAS Pain Change from Baseline Min [2, 11]: −2.00,; VAS Pain Change from Baseline Q1 [2, 11]: −0.800,; VAS Pain Change from Baseline Q3 [2, 11]: 0.000; VAS Pain Day 12 Max [2, 11]: 3.60; VAS Pain Day 12 Median [2, 11]: 1.000; VAS Pain Day 12 Min [2, 11]: 0.00,; VAS Pain Day 12 Q1 [2, 11]: 0.400,; VAS Pain Day 12 Q3 [2, 11]: 2.900; VAS Pain Percent Change from Baseline Max [2, 11]: 11.5%; VAS Pain Percent Change from Baseline Min [2, 11]: −55.6, %; VAS Pain Percent Change from Baseline Q1 [2, 11]: −53.33, %; VAS Pain Percent Change from Baseline Q3 [2, 11]: 0.00%
